# Experimental data: US20030068615A1, “Polypeptides that bind HIV gp120 and related nucleic acids, antibodies, compositions, and methods of use” (priority 1999, published 2003)
# Several values for one entry are separate records, joined by “and”; a condition that tells them apart may be missing. Identical values can stand only once. Like-named read-outs stand apart in the source and are kept apart here.
# Molecular target: HIV-1LAI envelope gp120 (Human immunodeficiency virus type 1 group M subtype B, UniProt P03377)
# Type: binding
# Conditions: for Relative % of Control: mean of two syntheses and binding experiments ± average deviation, wild-type = 100%; for Binding Results For Window Length (counts bound-background), 9 / Binding Results For Window Length (counts bound-background), 12 / Binding Results For Window Length (counts bound-background), 15 / Binding Results For Window Length (counts bound-background), 18: STRL33 amino terminus; for Binding Results For Window Length (counts bound-background), 9: 9-mer starting at the first residue of the printed sequence; for Binding Results For Window Length (counts bound-background), 12: 12-mer starting at the first residue of the printed sequence; for Binding Results For Window Length (counts bound-background), 15: 15-mer starting at the first residue of the printed sequence; for Binding Results For Window Length (counts bound-background), 18: 18-mer starting at the first residue of the printed sequence; for Counts per 20′ Average-background: CCR5 18-mer scan, radiolabeled HIV-1LAI gp120; for number of radioactive decays (counts) counted: human CD4 21-mer scan, empty control 2075
# [1] = Panel B, 15-mers and 18-mers of CD4, empty control 575
# [2] = Panel E, 9-mers and 12-mers of CD4, empty control 571
# [3] = Panel D, 9-mers and 12-mers of CD4, empty control […]
# [4] = Panel C, 15-mers and 18-mers of CD4, empty control 556
# [5] = Panel F, sequential alanine replacements of CD4 polypeptides, duplicate series, empty control 569
# [6] = Panel A, 21-mers of CD4, empty control 515 and 617
# [7] = CXCR4 18-mer scan, background subtracted, empty control 0
# [8] = CXCR4 18-mer scan, empty control 412
# [9] = STRL33 18-mer scan, background subtracted, first of two count columns
# [10] = STRL33 18-mer scan, background subtracted, second of two count columns
sequence,measurement,setting,value
MEGISIYTSANYTEEMGS,Relative % of Control,CXCR4 (1-18) alanine variants,71 ± 8%
VFGLTANSDTHLLQGQSL,COUNTS of radiolabeled gp120 retained,[1],531 counts
KIDIVVLAF,COUNTS of radiolabeled gp120 retained,[2],665 counts
YHEDYGFSSFNDSSQEEH,"Binding Results For Window Length (counts bound-background), 9",background subtracted,728 counts
same,"Binding Results For Window Length (counts bound-background), 12",background subtracted,1950 counts
same,"Binding Results For Window Length (counts bound-background), 15",background subtracted,1357 counts
same,"Binding Results For Window Length (counts bound-background), 18",background subtracted,985 counts
SEPCQKINVKQIAARLLP [CCR5 segment 17-34],Counts per 20′ Average-background,background subtracted,−44 counts per 20′
NFPLIIKNL,COUNTS of radiolabeled gp120 retained,[3],561 counts
GNFPLIIKNLKIEDSDTY,COUNTS of radiolabeled gp120 retained,[1],557 counts
VEKLTGSGE,COUNTS of radiolabeled gp120 retained,[2],585 counts
EKLTGSGEL,COUNTS of radiolabeled gp120 retained,[2],541 counts
VFGLTANSD,COUNTS of radiolabeled gp120 retained,[3],549 counts
AFTVEKLTGSGELWWQAE,COUNTS of radiolabeled gp120 retained,[4],788 counts
LKIEDSDTYICE,COUNTS of radiolabeled gp120 retained,[3],635 counts
KKEGEQVEFSFPLAF,COUNTS of radiolabeled gp120 retained,[4],1921 counts
AEVQLLVFGLTANSD,COUNTS of radiolabeled gp120 retained,[5],16220 counts and 14590 counts
"RRQAERMSQLKRLLSEKKTCQ [human CD4, printed 42E-446]",number of radioactive decays (counts) counted,,1607 counts
GNFPLIIKN,COUNTS of radiolabeled gp120 retained,[3],600 counts
KLQMGKKLPLHLTLPQALPQY,number of radioactive decays (counts) counted,,1949 counts
QNQKKVEFKIDI,COUNTS of radiolabeled gp120 retained,[2],559 counts
KLTGSGELWWQAERASSSKSW [human CD4 231-251],number of radioactive decays (counts) counted,,1878 counts
GEQVEFSFPLAFTVEKLTGSG [human CD4 216-236],COUNTS of radiolabeled gp120 retained,[6],652 counts
same,number of radioactive decays (counts) counted,,18549 counts
YSIIFLTGIVGNGLVILV [CXCR4 segment 45-62],radioactive counts recorded in twenty minutes,[7],123 counts
same,radioactive counts recorded in twenty minutes,[8],535 counts
LWDQGNFPLIIKNLK,COUNTS of radiolabeled gp120 retained,[1],502 counts
LTANSDTHLLQGQSL,COUNTS of radiolabeled gp120 retained,[1],634 counts
YKKEGEQVEFSF,COUNTS of radiolabeled gp120 retained,[2],548 counts
DTHLLQGQS,COUNTS of radiolabeled gp120 retained,[3],578 counts
KNLKIEDSD,COUNTS of radiolabeled gp120 retained,[3],612 counts
FPLIIKNLKIEDSDT,COUNTS of radiolabeled gp120 retained,[1],539 counts
LAFTVEKLTGSGELWWQAERA,COUNTS of radiolabeled gp120 retained,[6],3577 counts
VEFSFPLAFTVE,COUNTS of radiolabeled gp120 retained,[2],518 counts
EVEDQKEEVQLLVFGLTA,COUNTS of radiolabeled gp120 retained,[1],3647 counts
SKGHQKRKALKTTVILIL [CXCR4 segment 229-246],radioactive counts recorded in twenty minutes,[7],140 counts
same,radioactive counts recorded in twenty minutes,[8],552 counts
EDQKEEVQLLVF,COUNTS of radiolabeled gp120 retained,[3],1379 counts
LTCEVWGPTSPKLMLSLKLEN,number of radioactive decays (counts) counted,,2412 counts
EHQAFLQFS,"Binding Results For Window Length (counts bound-background), 9",background subtracted,7505 counts
TLGFFLPLLTMIVCYSVI,radioactive counts recorded in twenty minutes,[9],2387.5 counts
same,radioactive counts recorded in twenty minutes,[10],479.5 counts
AFTVEKLTGSGELWWQAERAS [human CD4 226-246],COUNTS of radiolabeled gp120 retained,[6],1739 counts
same,number of radioactive decays (counts) counted,,3992 counts
VEDQKEEVQLLVFGLTAN,COUNTS of radiolabeled gp120 retained,[1],3913 counts
EEVQLAVFGLTANSD,COUNTS of radiolabeled gp120 retained,[5],11954 counts and 13690 counts
LTANSDTHLLQG,COUNTS of radiolabeled gp120 retained,[3],534 counts
DAVANWYFGNFLCKAVHV,radioactive counts recorded in twenty minutes,[7],112 counts
same,radioactive counts recorded in twenty minutes,[8],524 counts
AGGFQKHRSLKIIFLVMA,radioactive counts recorded in twenty minutes,[9],340.5 counts
same,radioactive counts recorded in twenty minutes,[10],260.5 counts
SSIVYKKEG,COUNTS of radiolabeled gp120 retained,[2],515 counts
KKEGEQVEFSFPLAFTVEKLT,COUNTS of radiolabeled gp120 retained,[6],1847 counts
MEGISIATSDNYTEEMGS,Relative % of Control,CXCR4 (1-18) alanine variants,7 ± 0.4%
DYGFSSFNDSSQEEHQAF [STRL33 segment 9-26],radioactive counts recorded in twenty minutes,[9],8579.5 counts
same,radioactive counts recorded in twenty minutes,[10],8909.5 counts
same,"Binding Results For Window Length (counts bound-background), 9",background subtracted,701 counts
same,"Binding Results For Window Length (counts bound-background), 12",background subtracted,573 counts
same,"Binding Results For Window Length (counts bound-background), 15",background subtracted,595 counts
same,"Binding Results For Window Length (counts bound-background), 18",background subtracted,440 counts
LFFLLTVPFWAHYAAAQW [CCR5 segment 77-94],Counts per 20′ Average-background,background subtracted,173 counts per 20′
GLTANSDTHLLQGQS,COUNTS of radiolabeled gp120 retained,[1],532 counts
KASSIVYKKEGEQVEFSFPLA [human CD4 206-226],COUNTS of radiolabeled gp120 retained,[6],30873 counts
same,number of radioactive decays (counts) counted,,14347 counts
IEDSDTYIC,COUNTS of radiolabeled gp120 retained,[3],567 counts
EEVQLLVFGLAANSD,COUNTS of radiolabeled gp120 retained,[5],18863 counts and 19973 counts
FWAHYAAAQWDFGNTMCQ [CCR5 segment 85-],Counts per 20′ Average-background,background subtracted,212 counts per 20′
DTHLLQGQSLTL,COUNTS of radiolabeled gp120 retained,[3],527 counts
SFPLAFTVE,COUNTS of radiolabeled gp120 retained,[2],619 counts
SQEEHQAFLQFS,"Binding Results For Window Length (counts bound-background), 9",background subtracted,647 counts
same,"Binding Results For Window Length (counts bound-background), 12",background subtracted,7512 counts
ICEVEDQKEEVQ,COUNTS of radiolabeled gp120 retained,[3],585 counts
THLLQGQSLTLTLAS,COUNTS of radiolabeled gp120 retained,[5],2596 counts and 2193 counts
NPIIYAFVGEKFRNYLLV [CCR5 segment 293-],Counts per 20′ Average-background,background subtracted,162 counts per 20′
IKNLKIEDSDTY,COUNTS of radiolabeled gp120 retained,[3],574 counts
DTYICEVEDQKEEVQLLV,COUNTS of radiolabeled gp120 retained,[1],1648 counts
LNTFQEFFGLNNCSSSNR [CCR5 segment 257-],Counts per 20′ Average-background,background subtracted,293 counts per 20′
EQVEFSFPLAFTVEK,COUNTS of radiolabeled gp120 retained,[4],4135 counts
TYICEVEDQKEEVQL,COUNTS of radiolabeled gp120 retained,[1],956 counts
KATKAYNQQAKRMTWGKV,radioactive counts recorded in twenty minutes,[9],701.5 counts
same,radioactive counts recorded in twenty minutes,[10],568.5 counts
KASSIVYKKEGE,COUNTS of radiolabeled gp120 retained,[2],559 counts
EFKIDIVVLAFQ,COUNTS of radiolabeled gp120 retained,[2],659 counts
LLVFGLTANSDT,COUNTS of radiolabeled gp120 retained,[3],533 counts
DLVFVCTLPFWAYAGIHE [STRL33 segment 77-94],radioactive counts recorded in twenty minutes,[9],1116.5 counts
same,radioactive counts recorded in twenty minutes,[10],1063.5 counts
VFVCGLVGNSLVLVISIF [STRL33 segment 41-58],radioactive counts recorded in twenty minutes,[9],570.5 counts
same,radioactive counts recorded in twenty minutes,[10],284.5 counts
GKLHQEVNLVVMRATQLQKNL [human CD4 306-326],number of radioactive decays (counts) counted,,1776 counts
EEVQLLVFGLTANSA,COUNTS of radiolabeled gp120 retained,[5],22206 counts and 18227 counts
THLLQGASLTLTLES,COUNTS of radiolabeled gp120 retained,[5],1933 counts
KKEGEQVEF,COUNTS of radiolabeled gp120 retained,[2],546 counts
FWKNFQTLKIVILGLVLP [CCR5 segment 189-],Counts per 20′ Average-background,background subtracted,40 counts per 20′
VEFSFPLAF,COUNTS of radiolabeled gp120 retained,[2],1064 counts
QLLVFGLTANSDTHLLQG,COUNTS of radiolabeled gp120 retained,[1],574 counts
KNLKIEDSDTYICEV,COUNTS of radiolabeled gp120 retained,[1],562 counts
ICEVEDQKE,COUNTS of radiolabeled gp120 retained,[3],596 counts
KNFWKLVKDIGCLPYLGV [STRL33 segment 297-314],radioactive counts recorded in twenty minutes,[9],143.5 counts
same,radioactive counts recorded in twenty minutes,[10],82.5 counts
VLQNQKKVEFKIDIVVLA,COUNTS of radiolabeled gp120 retained,[4],724 counts
LKFRKNFWKLVKDIGCLP [STRL33 segment 293-310],radioactive counts recorded in twenty minutes,[9],920.5 counts
same,radioactive counts recorded in twenty minutes,[10],957.5 counts
HEDYGFSSFNDSSQEEHQ,"Binding Results For Window Length (counts bound-background), 9",background subtracted,729 counts
same,"Binding Results For Window Length (counts bound-background), 12",background subtracted,1077 counts
same,"Binding Results For Window Length (counts bound-background), 15",background subtracted,947 counts
same,"Binding Results For Window Length (counts bound-background), 18",background subtracted,537 counts
WGPTSPKLMLSLKLENKEAKV [human CD4 331-351],number of radioactive decays (counts) counted,,2414 counts
KEGEQVEFSFPLAFT,COUNTS of radiolabeled gp120 retained,[4],3253 counts
YAAAQWDFGNTMCQLLTG [CCR5 segment 89-],Counts per 20′ Average-background,background subtracted,494 counts per 20′
PLIIKLNKIEDSDTYICEVED,COUNTS of radiolabeled gp120 retained,[6],20145 counts
ATQMTLGFFLPLLTMIVC [STRL33 segment 193-210],radioactive counts recorded in twenty minutes,[9],2365.5 counts
same,radioactive counts recorded in twenty minutes,[10],2444.5 counts
LPPLYSLVFIFGFVGNML [CCR5 segment 33-50],Counts per 20′ Average-background,background subtracted,705 counts per 20′
SSQEEEQAFLQFSKV,"Binding Results For Window Length (counts bound-background), 9",background subtracted,287 counts
same,"Binding Results For Window Length (counts bound-background), 12",background subtracted,4455 counts
same,"Binding Results For Window Length (counts bound-background), 15",background subtracted,4732 counts
HVIYTVNLYSSVLILAFI [CXCR4 segment 113-130],radioactive counts recorded in twenty minutes,[7],118 counts
same,radioactive counts recorded in twenty minutes,[8],530 counts
EVQLLVFGLTANSDTHLL,COUNTS of radiolabeled gp120 retained,[1],667 counts
MDAQVSSPIYDINYYTSE [CCR5 (1-18) variant Y3A],Relative % of Control,CCR5 (1-18) alanine variants,51 ± 2%
SSSKSWITFDLKNKEVSVKRV [human CD4 246-266],number of radioactive decays (counts) counted,,1761 counts
KIEDSDTYI,COUNTS of radiolabeled gp120 retained,[3],603 counts
FIGFFSGIFFIILLTIDR,Counts per 20′ Average-background,background subtracted,76 counts per 20′
GNFPLIIKNLKIEDS,COUNTS of radiolabeled gp120 retained,[1],624 counts
